{"source": "patent US20110306598A1", "about": "“Use of the association of a sinus node if current inhibitor and an angiotensin-converting enzyme inhibitor in the treatment of heart failure” (LES LABORATOIRES SERVIER, priority 2010, published 2011)", "key": {"[1]": {"tested_on": "rats with heart failure (left coronary artery ligature)", "experiment": "Same rat heart failure model; ivabradine, perindopril or their association", "format": "in vivo", "settings": "HF rats", "method": "(§1) Heart failure was induced in rats by ligature of the left coronary artery (the control animals undergo an operation but are not ligated), which causes ischaemia of part of the wall of the left ventricle. The animals recuperate for 7 days and then, for 12 weeks, they are given either 3 mg/kg of compound A, or 0.4 mg/kg of perindopril, or perindopril and compound A concomitantly.\nThis effect on systolic function and diastolic function was then studied using the association of perindopril and a different If current inhibitor, ivabradine."}, "[2]": {"tested_on": "rats with heart failure (left coronary artery ligature)", "experiment": "Heart failure induced in rats by ligature of the left coronary artery; compound A, perindopril or both for 12 weeks", "format": "in vivo, rat", "settings": "HF rats; for LVEDPVR: compliance of LV; for LVEDPVR / LVEDP / LVESP / LVESPVR / cardiac output / dP/dtmax / dP/dtmin / shortening fraction (% of the diameter of the LV) / Heart rate / tau: compound A 3 mg/kg, perindopril 0.4 mg/kg; for LVEDPVR / LVEDP / LVESP / LVESPVR / cardiac output / dP/dtmax / dP/dtmin / shortening fraction (% of the diameter of the LV) / tau: 12 weeks; for tau: relaxation time", "method": "as §1"}, "[3]": {"settings": "Table 4B, ivabradine on its own"}}, "note": "Marks after values point to notes of the source that are not given here.", "data": [{"compound": "COc1cc2c(cc1OC)CC(=O)N(CCCN(C)C[C@H]1Cc3cc(OC)c(OC)cc31)CC2", "note": "[ivabradine, 3-{3-[{[(7S)-3,4-dimethoxybicyclo[4.2.0]octa-1,3,5-trien-7-yl]-methyl}(methyl)amino]propyl}-7,8-dimethoxy-1,3,4,5-tetrahydro-2H-3-benzazepin-2-one]", "values": [{"measurement": "effect on diastolic dysfunction (in words)", "setting": "[1]", "result": "comparable to that of perindopril on its own"}, {"measurement": "LVEDPVR", "setting": "[1]; [3]", "result": "1.87*^† mmHg/RVU"}, {"measurement": "LVESPVR", "setting": "[1]; [3]", "result": "20.63*^† mmHg/RVU"}]}, {"compound": "COc1cc2c(cc1OC)CCN(C(=O)CCN(C)C[C@H]1Cc3cc(OC)c(OC)cc31)CC2", "note": "[compound A, N-{[(7S)-3,4-dimethoxybicyclo[4.2.0]octa-1,3,5-trien-7-yl]methyl}-3-(7,8-dimethoxy-1,2,4,5-tetrahydro-3H-3-benzazepin-3-yl)-N-methyl-3-oxo-1-propanamine]", "values": [{"measurement": "effect on compliance of the left ventricle, measured by LVEDPVR (in words)", "setting": "[2]", "result": "very clearly improved"}, {"measurement": "effect on end diastolic pressure and relaxation time (in words)", "setting": "[2]", "result": "clearly improved"}, {"measurement": "effect on systolic function, seen from the LVESPVR (in words)", "setting": "[2]", "result": "improves systolic function"}, {"measurement": "LVEDPVR", "setting": "[2]", "result": "2.70^† mmHg/RVU"}, {"measurement": "LVEDP", "setting": "[2]", "result": "4.89^† mmHg"}, {"measurement": "LVESP", "setting": "[2]", "result": 118, "unit": "mmHg"}, {"measurement": "LVESPVR", "setting": "[2]", "result": "16.1^† mmHg/RVU"}, {"measurement": "cardiac output", "setting": "[2]", "result": 127, "unit": "mL/min"}, {"measurement": "dP/dtmax", "setting": "[2]", "result": "6.78 10^3 mmHg/s"}, {"measurement": "dP/dtmin", "setting": "[2]", "result": "5.87 −10^3 mmHg/s"}, {"measurement": "shortening fraction (% of the diameter of the LV)", "setting": "[2]", "result": "18.0 % of the diameter of the LV"}, {"measurement": "Heart rate", "setting": "[2]; duration of treatment 4 weeks", "result": 349.3, "unit": "bpm"}, {"measurement": "Heart rate", "setting": "[2]; duration of treatment 12 weeks", "result": "342.7^† bpm"}, {"measurement": "tau", "setting": "[2]", "result": "8.37^† ms"}, {"measurement": "effect on heart rate (in words)", "setting": "[2]; vs untreated HF", "result": "significant reduction in heart rate"}]}, {"compound": "CCC[C@H](N[C@@H](C)C(=O)N1[C@H](C(=O)O)C[C@@H]2CCCC[C@@H]21)C(=O)OCC", "note": "[perindopril]", "values": [{"measurement": "effect on compliance of the left ventricle, measured by LVEDPVR (in words)", "setting": "[2]", "result": "very clearly improved"}, {"measurement": "effect on end diastolic pressure and relaxation time (in words)", "setting": "[2]", "result": "clearly improved"}, {"measurement": "effect on systolic function, seen from the LVESPVR (in words)", "setting": "[2]", "result": "improves systolic function"}, {"measurement": "LVEDPVR", "setting": "[2]", "result": "2.36^† mmHg/RVU"}, {"measurement": "LVEDP", "setting": "[2]", "result": "5.17^† mmHg"}, {"measurement": "LVESP", "setting": "[2]", "result": 99, "unit": "mmHg"}, {"measurement": "LVESPVR", "setting": "[2]", "result": "16.4^† mmHg/RVU"}, {"measurement": "cardiac output", "setting": "[2]", "result": "142^† mL/min"}, {"measurement": "dP/dtmax", "setting": "[2]", "result": "5.97 10^3 mmHg/s"}, {"measurement": "dP/dtmin", "setting": "[2]", "result": "5.11 −10^3 mmHg/s"}, {"measurement": "shortening fraction (% of the diameter of the LV)", "setting": "[2]", "result": "17.1 % of the diameter of the LV"}, {"measurement": "Heart rate", "setting": "[2]; duration of treatment 4 weeks", "result": 388.2, "unit": "bpm"}, {"measurement": "Heart rate", "setting": "[2]; duration of treatment 12 weeks", "result": 387.7, "unit": "bpm"}, {"measurement": "tau", "setting": "[2]", "result": "7.31^† ms"}, {"measurement": "effect on systolic function (in words)", "setting": "[1]", "result": "improves the systolic function"}, {"measurement": "LVEDP", "setting": "[1]; Table 4a", "result": "6.88^† mmHg"}, {"measurement": "LVEDPVR", "setting": "[1]; Table 4a", "result": "2.25^† mmHg/RVU"}, {"measurement": "LVESP", "setting": "[1]; Table 4a", "result": "102^† mmHg"}, {"measurement": "LVESPVR", "setting": "[1]; Table 4a", "result": "14.5^† mmHg/RVU"}, {"measurement": "dP/dtmax", "setting": "[1]; Table 4a", "result": "6.08^† 10^3 mmHg/s"}, {"measurement": "dP/dtmin", "setting": "[1]; Table 4a", "result": "4.99 −10^3 mmHg/s"}, {"measurement": "tau", "setting": "[1]; Table 4a", "result": "10.92^† ms"}]}]}
